The structures appear in SMILES notation.

The target in data set [1] is T1, Human Adenosine A2a Receptor (Homo sapiens, UniProt P29274).
T1 construct: host or cells: CHO
Briefly: Human adenosine A2a receptor calcium flow detection experiment (FLIPR, Fluo-4, NECA agonist). It counts as cell-based. Conditions: A2a stable CHO cell line, antagonist mode vs NECA at EC80. How it is done:
Human Adenosine A2a Receptor Calcium Flow Detection Experiment
A2a stable cell line was constructed by Shanghai Wuxi Apptec, and the host cell was CHO.
Fluo-4 Direct kit (Invitrogen, article number: F10471). After the fluorescence detection reagent (specifically binding to calcium ions and causing an increase of fluorescence signal) in the kit was incubated with the cells for an appropriate time, the compound was added to stimulate the cells and induced changes in intracellular calcium flow, thus causing the changes in fluorescence signal, which can reflect the intensity of the agonistic or inhibiting activity of the compounds.
F12+10% fetal bovine serum+geneticin 300 μg/mL+blasticidin 2 μg/mL
Hanks balanced salt buffer (Invitrogen)+20 mM HEPES, which was prepared before each use
The compounds to be tested were dissolved in DMSO to prepare a 10 mM mother liquor. The test compound was diluted to 0.2 mM with DMSO, and the reference compound CGS-15943 was diluted to 0.015 mM with DMSO. Then a 10-point 3-fold serial dilution was performed with ECHO, then 900 nL of the dilutions was transferred to a compound plate (Greiner-781280), and 30 μL of the compound dilution buffer was added. The final initial concentration of the compounds to be tested was 1 μM and that of CGS-15943 was 0.075 μM.
Frozen A2A cells were suspended to 1×10^6 cells/mL with the culture medium after resuscitation, seeded with 20 μL/well into a 384-well polylysine coated cell plate (Greiner-781946), then incubated under 5% CO2 at 37° C. overnight.
The cell plate prepared the day before was taken out from the incubator, 20 μL 2×Fluo-4 Direct™ buffer was added into each cell, then incubated under 5% CO2 at 37° C. in an incubator for 50 minutes, and was allowed to stand at room temperature for 10 minutes.
Dilution of the agonist NECA: NECA with an initial concentration of 0.15 mM was 3-fold serially diluted with Echo to prepare 10 dilutions, and then 900 nL of the dilutions was transferred to the corresponding compound plate; then 30 μL of the compound dilution buffer was added into the corresponding compound plate. The final initial concentration was 750 nM.
FLIPR instrument and software were performed according to the set program, 10 μL of the compound dilution buffer was added into the cell plate, and the fluorescence signal was read. 10 μL of the agonist reference compound with a predetermined concentration was added to the cell plate and the fluorescence signal was read. After reading, the data were exported by “Max-Min” and “Read 90 to Maximum allowed” methods in the software, the EC80 on A2A cell line was calculated, and 6×EC80 concentration of agonist was prepared. The agonist reference compound with a concentration of 6×EC80 was prepared with buffer salt solution, and 30 μL/well was aliquoted into the corresponding compound plate for later use.
FLIPR instrument and software were performed according to the set program, 10 μL of test compounds and reference compound with a predetermined concentration was added into the cell plate, and the fluorescence signal was read. 10 μL of the agonist reference compound with a concentration of 6×EC80 was added into the cell plate and the fluorescence signal was read. For the agonist detection of the compounds, the data were exported by “Max-Min” and “Read 1 to 90” methods in the software. For the antagonist detection of the compounds, the data were exported by “Max-Min” and “Read 90 to Maximum allowed” methods in the software. The data were analyzed by GraphPad Prism 5.0 and the IC50 value of the test compounds was calculated.

A short description of data set [2]: Pharmacokinetic evaluation after single intravenous injection and single oral administration in mice. It counts as in vivo. Particulars: mouse, female Balb/C mice, plasma, single IV / single PO study; for bioavailability: read-out: Bioavailability F; for clearance: read-out: Clearance rate; for AUC: read-out: Concentration integral AUC; for half-life: read-out: Half-life T1/2 (converted). How it is done: Experimental materials: Balb/C mice (female, 15-30 g, 7-9 weeks old, Shanghai Linchang) were used.
Experimental method: The pharmacokinetic characteristics of the compound after intravenous injection and oral administration were tested on rodents by standard scheme, in the experiment, the candidate compounds were prepared into clear solutions and administrated to mice by single intravenous injection and single oral administration. Intravenous injection (IV) menstruum was a mixed solvent of 5% DMSO/5% polyethylene glycol hydroxystearate/90% water, and oral (PO) menstruum was a mixed solvent of 1% Tween 80, 9% PEG400 and 90% water (pH=3). The whole blood sample within 48 hours was collected, centrifuged at 3000 g at 4° C. for 15 minutes, and the supernatant was separated to obtain the plasma sample. An acetonitrile solution containing internal standard with a volume of 20 times that of the plasma sample was added to precipitate protein, the supernatant was centrifuged and an equal volume of water was added, then the supernatant was taken for injection. The blood drug concentration was quantitatively analyzed by LC-MS/MS analysis method, and the pharmacokinetic parameters such as peak concentration, peak time, clearance rate, half-life, area under the drug concentration-time curve, bioavailability, etc. were calculated.

T1 sequence (P29274 whole entry): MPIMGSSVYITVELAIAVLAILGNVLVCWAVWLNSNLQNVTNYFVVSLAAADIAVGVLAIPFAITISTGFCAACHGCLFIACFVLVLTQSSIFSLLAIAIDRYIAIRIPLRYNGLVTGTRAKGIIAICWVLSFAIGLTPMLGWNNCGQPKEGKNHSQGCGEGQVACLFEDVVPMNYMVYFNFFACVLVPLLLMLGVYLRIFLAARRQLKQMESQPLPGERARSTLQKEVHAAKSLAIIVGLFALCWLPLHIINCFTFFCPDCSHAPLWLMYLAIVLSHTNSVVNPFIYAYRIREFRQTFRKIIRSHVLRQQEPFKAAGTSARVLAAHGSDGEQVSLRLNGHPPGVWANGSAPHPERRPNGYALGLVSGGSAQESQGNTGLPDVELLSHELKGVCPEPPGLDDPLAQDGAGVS

For the compound `Cc1cc(-c2c(-c3ccc(F)cc3)nc(N)c3nccnc23)cc(C)n1` [Embodiment 1], the IC50 in data set [1] came to 4.77 nM. In data set [2], the bioavailability was found to be 57.6%, the clearance turned out to be 16.5 mL/min/kg, the AUC amounted to 16.7 µM·h and the half-life is 36 min. The matching figures for `Cc1cc(-c2c(-c3ccc(F)cc3)nc(N)c3nccnc23)cc(Cl)n1` [Embodiment 2]: 1.73 nM, 76.2%, 17.1 mL/min/kg, 20.3 µM·h and 46.8 min. On to `Nc1nc(-c2ccc(F)cc2)c(-c2cc(Cl)nc(C(F)(F)F)c2)c2nccnc12` [Embodiment 3], for which the IC50 in data set [1] was determined as 9.46 nM. Further, in data set [2], the bioavailability turned out to be 69%, the clearance was 18.1 mL/min/kg, the AUC is 15.7 µM·h and the half-life is 83.4 min. As for `Nc1nc(-c2ccc(F)cc2)c(-c2ccc3ncccc3c2)c2nccnc12` [Embodiment 4], the IC50 in data set [1] was found to be 0.92 nM. With `Nc1nc(-c2ccc(F)cc2)c(-c2ccc3nccnc3c2)c2nccnc12` [Embodiment 5], the IC50 in data set [1] came to 27.8 nM.

As for `Nc1nc(-c2ccc(F)cc2)c(-c2ccc3ncnn3c2)c2nccnc12` [Embodiment 6], the IC50 in data set [1] worked out at 1.14 nM. Moreover, in data set [2], the clearance was 5.87 mL/min/kg, the AUC is 24.1 µM·h and the half-life is 49.2 min. With `Nc1nc(-c2ccc(F)cc2)c(-c2ccn3ncnc3c2)c2nccnc12` [Embodiment 7], the IC50 in data set [1] worked out at 31.4 nM. `Nc1nc(-c2ccc(F)cc2)c(-c2ccc3c(c2)CCCN3)c2nccnc12` [Embodiment 8]: in data set [1], the IC50 amounted to 26.8 nM. Same read-out and setting: as for `Nc1nc(-c2ccc(F)cc2)c(-c2ccc3nncn3c2)c2nccnc12` [Embodiment 9], the figure is 15.6 nM; as for `Cc1cc(-c2c(-c3ccc(F)cc3)nc(N)c3nccnc23)cc(C(F)(F)F)n1` [Embodiment 10], 9.2 nM; as for `Cc1cc(-c2c(-c3ccc(F)cc3)nc(N)c3cccnc23)cc(Cl)n1` [Embodiment 11], 1.79 nM.

Consider `Nc1nc(-c2ccc(F)cc2)c(-c2ccc3ncnn3c2)c2ncccc12` [Embodiment 12], for which the IC50 in data set [1] came to 1.56 nM. In data set [2], the bioavailability turned out to be 95.4%, the clearance came to 1.72 mL/min/kg, the AUC amounted to 259 µM·h and the half-life is 197 min. As to `Nc1nc(-c2ccc(F)cc2)c(-c2ccc3nnccc3c2)c2nccnc12` [Embodiment 13], the IC50 in data set [1] is 9.4 nM. On the same count and under the same terms, as for `Nc1nc(-c2ccc(F)cc2)c(-c2ccc3ncncc3c2)c2nccnc12` [Embodiment 14], the figure is 0.76 nM; as for `Cc1cc(-c2c(-c3ccc(Cl)cc3)nc(N)c3nccnc23)cc(Cl)n1` [Embodiment 15], 3.84 nM; as for `Nc1ncc2cc(-c3c(-c4ccc(F)cc4)nc(N)c4nccnc34)ccc2n1` [Embodiment 16], 6.1 nM. Take `Nc1nc(-c2ccc(F)cc2)c(-c2cc(F)c3ncccc3c2)c2nccnc12` [Embodiment 17]: in data set [1], the IC50 was 0.8 nM. Same read-out and setting: in the case of `Nc1nc(-c2ccc(F)cc2)c(-c2ccc3cnccc3c2)c2nccnc12` [Embodiment 18] it was 78.8 nM. Turning to `Nc1nc(-c2ccc(F)cc2)c(-c2ccc3nccn3c2)c2nccnc12` [Embodiment 19], in data set [1], the IC50 turned out to be 0.54 nM. Still for that read-out and setting: as for `Nc1nc(-c2ccc(F)cc2)c(-c2ccc3[nH]ncc3c2)c2nccnc12` [Embodiment 20], the figure is 3.32 nM; as for `Nc1nc(-c2ccc(F)cc2)c(-c2cc(Cl)c3[nH]ncc3c2)c2nccnc12` [Embodiment 21], 0.82 nM.

For `Nc1nc(-c2ccc(F)cc2)c(-c2ccc3[nH]nc(Cl)c3c2)c2nccnc12` [Embodiment 22], the IC50 in data set [1] was 38 nM. On the same count and under the same terms, as for `Nc1nc(-c2ccc(F)cc2)c(-c2ccc3ncsc3c2)c2nccnc12` [Embodiment 23], the figure is 0.95 nM; as for `Cc1cc(-c2c(-c3ccc(F)cc3)nc(N)c3ncccc23)cc(Cl)n1` [Embodiment 24], 5.52 nM. On the same count and under the same terms, in the case of `Cc1cc(-c2c(-c3ccc(F)cc3)nc(N)c3cncnc23)cc(Cl)n1` [Embodiment 25] it was 0.89 nM. For `Nc1nc(-c2ccc(F)cc2)c(-c2cc(Cl)c3ncccc3c2)c2nccnc12` [Embodiment 26], the IC50 in data set [1] was 0.92 nM.

As for `Nc1nc(-c2ccccc2)c(-c2ccc3ncnn3c2)c2ncccc12` [Embodiment 27], in data set [1], the IC50 came out at 0.56 nM. Still for that read-out and setting: in the case of `Cc1cc(-c2c(-c3ccc(C)o3)nc(N)c3nccnc23)cc(Cl)n1` [Embodiment 28] it was 1.03 nM; in that of `Cn1ccc(-c2nc(N)c3nccnc3c2-c2ccc3ncnn3c2)n1` [Embodiment 29], 3.18 nM; in that of `Nc1nc(-c2ccc(Cl)o2)c(-c2ccc3ncnn3c2)c2nccnc12` [Embodiment 30], 0.35 nM. Still for that read-out and setting: as for `Cc1ccc(-c2nc(N)c3nccnc3c2-c2ccc3ncnn3c2)o1` [Embodiment 31], the figure is 0.58 nM. As for `Nc1nc(-c2ccc(Cl)s2)c(-c2ccc3ncnn3c2)c2nccnc12` [Embodiment 32], the IC50 in data set [1] was 1.8 nM. For the compound `Cc1cc(-c2c(-c3ccc(Cl)s3)nc(N)c3nccnc23)cc(Cl)n1` [Embodiment 33], the IC50 in data set [1] was found to be 24 nM. Same read-out and setting: in the case of `Nc1nc(-c2ccc(F)cc2)c(-c2cc(Cl)c3ncnn3c2)c2nccnc12` [Embodiment 34] it was 1.04 nM.

Source of the values: patent US11312715B2, “Fused ring derivative as A2A receptor inhibitor” (CSTONE PHARMACEUTICALS (SUZHOU) CO., LTD., priority 2017, dated 2022).
